Columns and labels:
[1] = tested on: antigen-negative cell line A549; experiment: In vitro cytotoxicity, MTS/PMS cell proliferation assay, A549; format: cell-based; conditions: A549 cells, highest concentration of BIWI 1 tested (5×1 0-7 M), 4 days
Procedure: For determination of viable cells the Cell Titer 96® AQueous non-radioactive cell proliferation assay (Promega) was used. Five thousand cells per well were seeded into 96-well plates in 90 μl medium without phenole red. Cells were allowed to settle down for 1 to 3 h and then serial dilutions of the immunoconjugate in 10 μl PBS were added. Cells without immunoconjugate served as negative control. Cells were incubated for 4 days at 37° C. in a humified 5% CO2 atmosphere and then 20 μl MTS/PMS were added according to the manufacturer's recommendation. After additional 1 to 4 h incubation at 37° C. the absorbance at 490 nm was recorded using an ELISA plate reader. For each cell line triplicates were analyzed. The percentage of the surviving cell fraction and the IC50 value were calculated using the GraphPad Prism® (Version 3.0) software.
The in vitro cytotoxicity of BIWI 1 was evaluated using the antigen-positive cell lines A431 and FaDu, and the antigen-negative cell line […]. Cells were exposed to different concentrations of BIWI 1 for 4 days, then stained with MTS/PMS and assayed on an ELISA plate reader. The surviving fractions of cells were then calculated using the GraphPad Prism® software package.

A431 tumors = experiment: BIWI 1 monotherapy in A431 xenografted nude mice; format: in vivo, mouse; conditions: five consecutive days
Procedure: (§1) In vivo anti-tumor efficacy of BIWI 1 was tested in three nude mouse xenograft models applying antigen-positive human tumors: A431 (ATCC # CRL 1555; epidermoid carcinoma of the vulva), FaDu (ATCC # HTB 43; squamous cell carcinoma of the pharynx), and MDA-MB 453 (ATCC # HTB-131; breast carcinoma). The cells were received from ATCC and cultured in RPMI1640 medium containing 10% fetal calf serum and supplements. 1×10^6 tumors cells were transplanted subcutaneously into the right flank of 6 week old female NMRI-nu/nu mice. Tumor growth was monitored by measuring tumor size. A tumor response was rated as complete response when the tumor completely disappeared at any time after start of treatment. The response was rated as partial response when the tumor volume decreased after treatment but thereafter started regrowing. The tolerability of the treatment was monitored by measuring mouse weight during the observation period.
Mice were randomised into the following treatment groups (treatment/initial mean tumor volume/tumor volume range/number of mice): • Group 1: Control (PBS)/185±217 mm^3/19-424 mm^3/5 mice. • Group 2: BIWA 4 (21 mg/kg/d)/133±115 mm^3/42-302 mm^3/5 mice. • Group 3: BIWI 1 (2.1 mg/kg/d)/107±63 mm^3/42-205 mm^3′/5 mice. • Group 4: BIWI 1 (7 mg/kg/d)/132±73 mm^3/42-205 mm^3/5 mice. • Group 5: BIWI 1 (21 mg/kg/d)/107±[…]/42-205 mm^3/5 mice.
Groups of 5 mice were treated with 2.1 mg/kg/d BIWI 1, 7 mg/kg/d BIWI 1, 21 mg/kg/d BIWI 1, and 21 mg/kg/d control antibody, respectively. Treatment consisted of i.v. injections of BIWI 1 given on five consecutive days, starting at day 1.

MDA-MB 453 tumors = experiment: BIWI 1 monotherapy in MDA-MB 453 xenografted mice; format: in vivo, mouse
Procedure: as §1
Groups of 6 mice were treated with 6.25 mg/kg BIWI 1, 12.5 mg/kg BIWI 1, and 25 mg/kg BIWI 1, respectively. Treatment consisted of i.v. injections of BIWI 1 given weekly for four weeks. The average tumor size at start of treatment was 246±/−79 mm^3 (PBS), 216 +/85 mm^3 (6.25 mg/kg BIWI 1), 188±/−79 mm^3 (12.5 mg/kg BIWI 1), and 207±/−96 mm3 (25 mg/kg BIWI 1), respectively. The initial tumor volume doubling time of the control tumors was approximately 5 days. […] Tumors treated with 12.5 mg/kg or 6.25 mg/kg responded completely in 5/6 cases in each dose group, and 4 animals of each group stayed tumor free until the end of the experiment.

[2] = 7 mg/kg/d or 21 mg/kg/d BIWI 1 i.v.
[3] = 25 mg/kg BIWI 1 i.v. weekly for four weeks

## BIWI 1
[1]
  surviving fraction: 50%
A431 tumors; 2.1 mg/kg/d BIWI 1 i.v., 5 mice
  tumors with partial response: 2
A431 tumors; 2.1 mg/kg/d BIWI 1 i.v., no regrowth until day 134
  complete responses: 3/5
A431 tumors; [2]
  day on which tumors disappeared: ~17 days
  tumor regrowth until end of observation period (day 134): No tumor regrowth
  tumor response: all tumors responded completely
MDA-MB 453 tumors; 12.5 mg/kg or 6.25 mg/kg BIWI 1, each group of 6 mice
  animals tumor free until the end of the experiment: 4
MDA-MB 453 tumors; 12.5 mg/kg or 6.25 mg/kg BIWI 1 i.v. weekly for four weeks, in each dose group
  complete responses: 5/6
MDA-MB 453 tumors; [3]
  day on which tumors disappeared: ~22 days
  tumor regrowth until end of observation period (day 64): No tumor regrowth
  tumor response: all tumors responded completely
